How the values were obtained:
Escherichia coli [1] = assay: Potentiation of meropenem-induced antibacterial activity against Escherichia coli C1580 expressing VIM-2 assessed as fold reduction in meropenem MIC at 10 ug/ml incubated for 18 to 20 hrs by CLSI based broth microtiter dilution method; type: functional; conditions: dose 10 µg/ml; time 18-20 hrs
Escherichia coli [2] = assay: Potentiation of meropenem-induced antibacterial activity against Escherichia coli C1541 expressing IMP-1 assessed as fold reduction in meropenem MIC at 10 ug/ml incubated for 18 to 20 hrs by CLSI based broth microtiter dilution method; type: functional; conditions: dose 10 µg/ml; time 18-20 hrs
[3] = Inhibition of bacterial VIM-2 (27 to 266 residues) expressed in Escherichia coli Transetta (DE3) using FC-5 as substrate preincubated with enzyme for 10 mins followed by substrate addition by fluorescence based analysis; design: species or system Bacteria
Escherichia coli [4] = assay: Potentiation of meropenem-induced antibacterial activity against Escherichia coli C1580 expressing VIM-2 assessed as meropenem MIC at 10 ug/ml incubated for 18 to 20 hrs by CLSI based broth microtiter dilution method (reference value: 32 ug/ml); type: functional; conditions: dose 10 µg/ml, time 18-20 hrs
[5] = Inhibition of bacterial recombinant full length C-terminal-TEV-His6-tagged VIM-1 expressed in Escherichia coli Transetta using FC-5 as substrate preincubated with enzyme for 10 mins followed by substrate addition by fluorescence based analysis; design: species or system Bacteria
[6] = Inhibition of bacterial recombinant full length N-terminal-TEV-His6-tagged VIM-5 expressed in Escherichia coli Transetta using FC-5 as substrate preincubated with enzyme for 10 mins followed by substrate addition by fluorescence based analysis; design: species or system Bacteria
[7] = Inhibition of bacterial NDM-1 (1 to 270 residues) expressed in Escherichia coli Transetta (DE3) using FC-5 as substrate preincubated with enzyme for 10 mins followed by substrate addition by fluorescence based analysis; design: species or system Bacteria
[8] = Inhibition of bacterial IMP-1 (1 to 246 residues) expressed in Escherichia coli Transetta (DE3) using FC-5 as substrate preincubated with enzyme for 10 mins followed by substrate addition by fluorescence based analysis; design: species or system Bacteria
Escherichia coli [9] = assay: Potentiation of meropenem-induced antibacterial activity against Escherichia coli C1541 expressing VIM-2 assessed as meropenem MIC at 10 ug/ml incubated for 18 to 20 hrs by CLSI based broth microtiter dilution method (reference value: 16 ug/ml); type: functional; conditions: dose 10 µg/ml, time 18-20 hrs
Escherichia coli [10] = assay: Potentiation of meropenem-induced antibacterial activity against Escherichia coli C1542 expressing VIM-2 assessed as meropenem MIC at 10 ug/ml incubated for 18 to 20 hrs by CLSI based broth microtiter dilution method (reference value: 16 ug/ml); type: functional; conditions: dose 10 µg/ml, time 18-20 hrs
Escherichia coli [11] = assay: Potentiation of meropenem-induced antibacterial activity against Escherichia coli C1541 expressing IMP-1 assessed as meropenem MIC at 10 ug/ml incubated for 18 to 20 hrs by broth microtiter dilution method (reference value: 32 ug/ml); type: functional; conditions: dose 10 µg/ml, time 18-20 hrs
Pseudomonas aeruginosa [12] = assay: Potentiation of meropenem-induced antibacterial activity against Pseudomonas aeruginosa W35 expressing VIM-2 assessed as meropenem MIC at 100 ug/ml incubated for 18 to 20 hrs in presence of meropenem by CLSI based broth microtiter dilution method (reference value: 64 ug/ml); type: functional; conditions: dose 100 µg/ml, time 18-20 hrs
Pseudomonas aeruginosa [13] = assay: Potentiation of meropenem-induced antibacterial activity against Pseudomonas aeruginosa 5621 expressing VIM-2 assessed as meropenem MIC at 100 ug/ml incubated for 18 to 20 hrs in presence of meropenem by CLSI based broth microtiter dilution method (reference value: 64 ug/ml); type: functional; conditions: dose 100 µg/ml, time 18-20 hrs
Escherichia coli [14] = assay: Potentiation of meropenem-induced antibacterial activity against Escherichia coli C1541 expressing VIM-2 assessed as fold reduction in meropenem MIC at 10 ug/ml incubated for 18 to 20 hrs by CLSI based broth microtiter dilution method; type: functional; conditions: dose 10 µg/ml; time 18-20 hrs
Pseudomonas aeruginosa [15] = assay: Potentiation of meropenem-induced antibacterial activity against Pseudomonas aeruginosa 5621 expressing VIM-2 assessed as fold reduction in meropenem MIC at 100 ug/ml incubated for 18 to 20 hrs by CLSI based broth microtiter dilution method; type: functional; conditions: dose 100 µg/ml; time 18-20 hrs
Escherichia coli [16] = assay: Potentiation of meropenem-induced antibacterial activity against Escherichia coli C1542 expressing VIM-2 assessed as fold reduction in meropenem MIC at 10 ug/ml incubated for 18 to 20 hrs by CLSI based broth microtiter dilution method; type: functional; conditions: dose 10 µg/ml; time 18-20 hrs
Pseudomonas aeruginosa [17] = assay: Potentiation of meropenem-induced antibacterial activity against Pseudomonas aeruginosa W35 expressing VIM-2 assessed as fold reduction in meropenem MIC at 100 ug/ml incubated for 18 to 20 hrs by CLSI based broth microtiter dilution method; type: functional; conditions: dose 100 µg/ml; time 18-20 hrs
Escherichia coli [18] = assay: Synergistic antibacterial activity against Escherichia coli C1541 expressing VIM-2 assessed as fractional inhibitory concentration index incubated for 18 to 20 hrs in presence of meropenem by checkerboard microdilution assay; type: functional; conditions: time 18-20 hrs
[19] = Inhibition of bacterial VIM-2 (27 to 266 residues) expressed in Escherichia coli Transetta (DE3) using FC-5 as substrate preincubated with enzyme for 10 mins followed by substrate addition in presence of 1 uM Zn2+ by fluorescence based analysis; design: species or system Bacteria
[20] = Inhibition of bacterial VIM-2 (27 to 266 residues) expressed in Escherichia coli Transetta (DE3) using FC-5 as substrate preincubated with enzyme for 10 mins followed by substrate addition in presence of 100 uM Zn2+ by fluorescence based analysis; design: species or system Bacteria
Escherichia coli [21] = assay: Synergistic antibacterial activity against Escherichia coli C1541 expressing VIM-2 assessed as fractional inhibitory concentration index incubated for 18 to 20 hrs in presence of meropenem and 1 uM of zinc sulfate by checkerboard microdilution assay; type: functional; conditions: time 18-20 hrs
Escherichia coli [22] = assay: Synergistic antibacterial activity against Escherichia coli C1541 expressing VIM-2 assessed as fractional inhibitory concentration index incubated for 18 to 20 hrs in presence of meropenem and 100 uM of zinc sulfate by checkerboard microdilution assay; type: functional; conditions: time 18-20 hrs
Escherichia coli [23] = assay: Potentiation of meropenem-induced antibacterial activity against Escherichia coli C1541 expressing IMP-1 assessed as fold reduction in meropenem MIC at 100 ug/ml incubated for 18 to 20 hrs by CLSI based broth microtiter dilution method; type: functional; conditions: dose 100 µg/ml; time 18-20 hrs
Pseudomonas aeruginosa [24] = assay: Synergistic antibacterial activity against Pseudomonas aeruginosa W35 expressing VIM-2 assessed as fractional inhibitory concentration index incubated for 18 to 20 hrs in presence of meropenem by checkerboard microdilution assay; type: functional; conditions: time 18-20 hrs
[25] = Solubility of the compound in water; type: physicochemical

| SMILES | fold change (FC) (Escherichia coli [1]) | fold change (FC) (Escherichia coli [2]) | IC50 [3] [µM] | MIC (Escherichia coli [4]) [µg/mL] | IC50 [5] [µM] | IC50 [6] [µM] | IC50 [7] [µM] | IC50 [8] [µM] | MIC (Escherichia coli [9]) [µg/mL] | MIC (Escherichia coli [10]) [µg/mL] | MIC (Escherichia coli [11]) [µg/mL] | MIC (Pseudomonas aeruginosa [12]) [µg/mL] | MIC (Pseudomonas aeruginosa [13]) [µg/mL] | fold change (FC) (Escherichia coli [14]) | fold change (FC) (Pseudomonas aeruginosa [15]) | fold change (FC) (Escherichia coli [16]) | fold change (FC) (Pseudomonas aeruginosa [17]) | other results |
| --- | --- | --- | --- | --- | --- | --- | --- | --- | --- | --- | --- | --- | --- | --- | --- | --- | --- | --- |
| O=C(O)c1nccn1Cc1ccc(O)cc1 | 8 | 1 | 0.17 | 4 | 5.04 | 1.12 | 118 | 9.55 | 1 | < 0.25 | 32 | 16 | 64 | 16 | 1 | >64 | 4 |  |
| O=C(O)c1nccn1Cc1ccccc1 | 2 | 1 | 0.48 | 16 | 4.14 | 1.55 | 63.5 | 32.1 | 16 | 16 | 32 | 32 | 64 | 1 | 1 | 1 | 2 |  |
| C=CCCn1ccnc1C(=O)O | 1 | 1 | 1.05 | 32 | 14.8 | 4.72 | > 300 | > 300 | 16 | 8 | 32 |  |  | 1 |  | 2 |  |  |
| COc1ccc(Cn2ccnc2C(=O)O)cc1 | 32 | 1 | 0.38 | 1 | 13 | 0.84 | 157 | 10.9 | 0.5 | < 0.25 | 32 | 16 | 64 | 32 | 1 | >64 | 4 |  |
| O=C(O)c1nccn1Cc1cc(Br)cc(Br)c1 | 8 | 2 | 0.014 | 4 | 1.37 | 0.053 | 98.9 | 0.085 | 0.5 | 1 | 16 | 16 | 32 | 32 | 2 | 16 | 4 | fractional inhibitory concentration index (FICI) (Escherichia coli [18]): 0.05; IC50 [19]: 0.048 µM; IC50 [20]: 0.11 µM; fractional inhibitory concentration index (FICI) (Escherichia coli [21]): 0.06; fractional inhibitory concentration index (FICI) (Escherichia coli [22]): 0.06; fold change (FC) (Escherichia coli [23]): 8 |
| NCc1ccc(Cn2ccnc2C(=O)O)cc1 | 2 | 1 | 3.89 | 16 | 8.55 | 18.2 | 165 | 75.5 | 8 | 16 | 32 | 16 | 32 | 2 | 2 | 1 | 4 |  |
| Cc1cnc(C(=O)O)n1Cc1ccccc1 | 32 | 1 | 0.48 | 1 | 3.18 | 2.2 | 29.7 | 86.5 | < 0.25 | 0.5 | 32 | 16 | 32 | >64 | 2 | 32 | 4 |  |
| O=C(O)c1nccn1Cc1cc(Br)cs1 | 8 | 1 | 0.43 | 4 | 24.9 | 2.47 | 111 | 20.3 | 2 | 4 | 32 | 32 | 64 | 8 | 1 | 4 | 2 |  |
| N#Cc1ccc(Cn2ccnc2C(=O)O)cc1 | 32 | 1 | 0.29 | 1 | 8.69 | 0.12 | 227 | 30.1 | < 0.25 | < 0.25 | 32 | 32 | 64 | >64 | 1 | >64 | 2 |  |
| Nc1nc2c(Cn3ccnc3C(=O)O)cccc2s1 | 32 | 1 | 0.16 | 1 | 1.89 | 1.04 | 131 | 217 | 0.5 | < 0.25 | 32 | 64 | 64 | 32 | 1 | >64 | 1 |  |
| Nc1nc2ccc(Cn3ccnc3C(=O)O)cc2s1 | >128 | 1 | 0.019 | < 0.25 | 13.6 | 0.38 | 178 | 14.4 | < 0.25 | < 0.25 | 32 | 16 | 64 | >64 | 1 | >64 | 4 | fractional inhibitory concentration index (FICI) (Escherichia coli [18]): 0.02; IC50 [19]: 0.014 µM; IC50 [20]: 0.076 µM; fractional inhibitory concentration index (FICI) (Escherichia coli [21]): 0.02; fractional inhibitory concentration index (FICI) (Escherichia coli [22]): 0.03; fractional inhibitory concentration index (FICI) (Pseudomonas aeruginosa [24]): 0.125; solubility [25]: < 2500 µg/mL |
| C=CCCn1c(C)cnc1C(=O)O | 4 | 1 | 0.8 | 8 | 37.3 | 3.77 | 144 | 48.6 | 1 | 2 | 32 |  |  | 16 |  | 8 |  |  |
